Data reported in patent US8846661B2, “Diazahomoadamantane derivatives and methods of use thereof” (AbbVie Inc., priority 2009, dated 2014).

Biological target: α7 NNR (UniProt Q05941)
Settings: [3H]-DPPB binding
Description: [^3H]-DPPB, [^3H]-(S,S)-2,2-dimethyl-5-(6-phenyl-pyridazin-3-yl)-5-aza-2-azonia-bicyclo[2.2.1]heptane iodide, binding to the α7 NNR subtype was determined using membrane enriched fractions from rat brain minus cerebellum or human cortex (ABS Inc., Wilmington, Del.) as described in Anderson, D. J.; et al., J. Pharmacol. Exp. Ther. 2008, 324: 179-187 which is incorporated herein by reference. Briefly, pellets were thawed at 4° C., washed and resuspended with a Polytron at a setting of 7 in 30 volumes of BSS-Tris buffer (120 mM NaCl, 5 mM KCl, 2 mM CaCl2, 2 mM MgCl2, and 50 mM Tris-C1, pH 7.4, 4° C.). Seven log-dilution concentrations of test compounds containing 100-200 μg of protein, and 0.5 nM [^3H]-DPPB (62.8 Ci/mmol; R46V, Abbott Labs) were incubated in a final volume of 500 μL for 75 minutes at 4° C. in duplicate. Non-specific binding was determined in the presence of 10 μM methyllycaconitine. Bound radioactivity was collected on Millipore MultiScreen® harvest plates FB presoaked with 0.3% polyethyleneimine using a Packard cell harvester, washed with 2.5 mL ice-cold buffer, and radioactivity was determined using a Packard TopCount Microplate beta counter. IC50 values were determined by nonlinear regression in Microsoft® Excel or Assay Explorer. K, values were calculated from the IC50s using the Cheng-Prusoff equation, where Ki=IC50/(1+[Ligand]/KD) and are shown in Table 1.

With “4-[5-(3,4-difluorophenyl)pyridin-3-yl]-1,4-diazatricyclo[4.3.1.1^3s]undecane [Example 99]” the Ki was greater than 10000 nM.

In the case of O=C1NC2CC3CC1CN(C3)C2 (stereo not shown) [Example 1, 1,4-diazatricyclo[4.3.1.1^3,8]undecan-5-one], the Ki is reported as 701 nM.

Work on O=C(c1cc2ccsc2cn1)N1CC2CC3CC1CN(C3)C2 (stereo not shown) [Example 3, 4-(thieno[2,3-c]pyridin-5-ylcarbonyl)-1,4-diazatricyclo[4.3.1.1^3,8]undecane] yielded a Ki of 11.6 nM.

Work on O=C(c1ccc2sccc2n1)N1CC2CC3CC1CN(C3)C2 (stereo not shown) [Example 4, 4-(thieno[3,2-b]pyridin-5-ylcarbonyl)-1,4-diazatricyclo[4.3.1.1^3,8]undecane] yielded a Ki of 456 nM.

In the case of O=S1(=O)c2ccccc2-c2ccc(N3CC4CC5CC3CN(C5)C4)cc21 (stereo not shown) [Example 5, 4-(5,5-dioxidodibenzo[b,d]thien-3-yl)-1,4-diazatricyclo[4.3.1.1^3,8]undecane], the Ki is reported as 2.3 nM.

c1cc2cc(-c3ccc(N4CC5CC6CC4CN(C6)C5)nn3)ccc2s1 (stereo not shown) [Example 8, 4-[6-(1-benzothien-5-yl)pyridazin-3-yl]-1,4-diazatricyclo[4.3.1.1^3,8]undecane] showed a Ki of 3.5 nM.

For O=C(c1ccc2[nH]ccc2c1)N1CC2CC3CC1CN(C3)C2 (stereo not shown) [Example 37, 4-(1H-indol-5-ylcarbonyl)-1,4-diazatricyclo[4.3.1.1^3,8]undecane], the Ki was greater than 10000 nM.

O=C(c1n[nH]c2ccccc12)N1CC2CC3CC1CN(C3)C2 (stereo not shown) [Example 57, 4-(1H-indazol-3-ylcarbonyl)-1,4-diazatricyclo[4.3.1.1^3,8]undecane] gave a Ki of 23.6 nM.

For c1cc(-c2cncc(N3CC4CC5CC3CN(C5)C4)c2)c2cc[nH]c2c1 (stereo not shown) [Example 104, 4-[5-(1H-indol-4-yl)pyridin-3-yl]-1,4-diazatricyclo[4.3.1.1^3,8]undecane], the Ki was 26.3 nM.

With COc1ccc(-c2cnc(N3CC4CC5CC3CN(C5)C4)s2)cc1 (stereo not shown) [Example 105, 4-[5-(4-methoxyphenyl)-1,3-thiazol-2-yl]-1,4-diazatricyclo[4.3.1.1^3,8]undecane] the Ki was 133 nM.

In the case of Cc1ccc(-c2cnc(N3CC4CC5CC3CN(C5)C4)s2)cc1 (stereo not shown) [Example 106, 4-[5-(4-methylphenyl)-1,3-thiazol-2-yl]-1,4-diazatricyclo[4.3.1.1^3,8]undecane], the Ki is reported as 26.4 nM.

Fc1cccc(-c2cnc(N3CC4CC5CC3CN(C5)C4)s2)c1 (stereo not shown) [Example 108, 4-[5-(3-fluorophenyl)-1,3-thiazol-2-yl]-1,4-diazatricyclo[4.3.1.1^3,8]undecane] showed a Ki of 37.7 nM.

Compound Fc1ccc(-c2cnc(N3CC4CC5CC3CN(C5)C4)s2)cc1 (stereo not shown) [Example 110, 4-[5-(4-fluorophenyl)-1,3-thiazol-2-yl]-1,4-diazatricyclo[4.3.1.1^3,8]undecane] has a Ki of 53.6 nM.

Clc1ccc2nc(N3CC4CC5CC3CN(C5)C4)sc2c1 (stereo not shown) [Example 111, 4-(6-chloro-1,3-benzothiazol-2-yl)-1,4-diazatricyclo[4.3.1.1^3,8]undecane] showed a Ki of 114 nM.

Clc1ccc2nc(N3CC4CC5CC3CN(C5)C4)oc2c1 (stereo not shown) [Example 112, 4-(6-chloro-1,3-benzoxazol-2-yl)-1,4-diazatricyclo[4.3.1.1^3,8]undecane] gave a Ki of 35.5 nM.

c1ccc2sc(N3CC4CC5CC3CN(C5)C4)nc2c1 (stereo not shown) [Example 113, 4-(1,3-benzothiazol-2-yl)-1,4-diazatricyclo[4.3.1.1^3,8]undecane] gave a Ki greater than 10000 nM.
